The subject of data set [1] is HL-60. The data set can be described thus: Induction of human HL60 cell differentiation. The class given is functional, cell-based.
Data set [2] has as its system HL-60. The data set can be described thus: Induction of human HL60 cell differentiation in presence of 1 x 10^-10 M RAR agonist Am80. The class given is functional, cell-based.
The target of data set [3] is T1, Retinoid X receptor (Homo sapiens, UniProt P28702+P48443+P19793).
T1 sequence (P28702 whole entry): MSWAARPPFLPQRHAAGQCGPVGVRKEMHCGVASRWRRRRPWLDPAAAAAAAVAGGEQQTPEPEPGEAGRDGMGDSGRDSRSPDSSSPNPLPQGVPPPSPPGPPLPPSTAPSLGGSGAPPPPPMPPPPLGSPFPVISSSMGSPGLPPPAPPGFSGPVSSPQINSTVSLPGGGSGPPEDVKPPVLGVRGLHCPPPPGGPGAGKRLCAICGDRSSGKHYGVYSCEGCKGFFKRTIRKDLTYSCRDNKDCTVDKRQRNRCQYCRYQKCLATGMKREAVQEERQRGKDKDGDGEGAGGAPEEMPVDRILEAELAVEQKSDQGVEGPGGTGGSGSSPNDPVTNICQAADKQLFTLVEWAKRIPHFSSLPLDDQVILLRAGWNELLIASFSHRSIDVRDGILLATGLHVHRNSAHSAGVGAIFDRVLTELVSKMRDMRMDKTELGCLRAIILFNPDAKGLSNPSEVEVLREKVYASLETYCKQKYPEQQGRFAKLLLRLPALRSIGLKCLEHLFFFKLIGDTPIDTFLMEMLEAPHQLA
T1 sequence (P48443 whole entry): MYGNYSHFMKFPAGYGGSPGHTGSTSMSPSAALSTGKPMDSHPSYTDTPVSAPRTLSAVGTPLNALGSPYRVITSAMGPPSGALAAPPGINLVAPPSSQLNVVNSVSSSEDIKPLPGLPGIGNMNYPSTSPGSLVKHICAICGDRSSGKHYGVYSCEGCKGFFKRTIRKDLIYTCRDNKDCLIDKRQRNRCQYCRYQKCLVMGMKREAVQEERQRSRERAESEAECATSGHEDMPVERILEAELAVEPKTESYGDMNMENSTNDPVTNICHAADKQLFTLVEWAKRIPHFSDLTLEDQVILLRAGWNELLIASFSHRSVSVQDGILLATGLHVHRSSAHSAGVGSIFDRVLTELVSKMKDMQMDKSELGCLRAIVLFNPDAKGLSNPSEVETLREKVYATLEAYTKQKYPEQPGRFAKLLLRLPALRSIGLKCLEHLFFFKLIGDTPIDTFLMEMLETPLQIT
T1 sequence (P19793 whole entry): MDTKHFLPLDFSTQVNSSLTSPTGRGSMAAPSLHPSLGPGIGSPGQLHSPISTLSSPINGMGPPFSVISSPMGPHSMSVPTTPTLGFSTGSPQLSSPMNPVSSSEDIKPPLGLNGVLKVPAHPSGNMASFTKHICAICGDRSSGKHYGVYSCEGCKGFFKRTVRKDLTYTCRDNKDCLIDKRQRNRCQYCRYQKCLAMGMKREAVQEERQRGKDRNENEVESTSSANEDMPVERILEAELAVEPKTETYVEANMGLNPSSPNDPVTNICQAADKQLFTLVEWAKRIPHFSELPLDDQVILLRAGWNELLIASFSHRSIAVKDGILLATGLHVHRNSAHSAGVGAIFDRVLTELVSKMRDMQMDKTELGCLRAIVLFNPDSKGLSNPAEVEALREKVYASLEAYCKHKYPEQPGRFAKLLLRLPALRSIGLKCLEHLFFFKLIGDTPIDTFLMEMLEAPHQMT
Put plainly: Agonist activity at RXR (unknown origin) in presence of RAR agonist Am80. The class given is protein assay.

A short description of data set [4]: Agonist activity at RAR/RXR (unknown origin) in presence of RAR agonist Am80. On the set-up: species or system Homo sapiens.
Data set [5] is described as follows: Agonist activity at RAR/RXR (unknown origin). The arrangement: species or system Homo sapiens.
For data set [6], the system named is HL-60. Put plainly: Inhibition of Am80-induced human HL60 cell differentiation. The class given is cell-based.
Data set [7] relates to HL-60. The data set can be described thus: Induction of human HL60 cell differentiation at 1 x 10^-10 M. The format is functional.
Data set [8] deals with HL-60. Put plainly: Induction of human HL60 cell differentiation at 3.3 x 10^-10 M. The format is functional.

Active and inactive are the calls of the source. The calls are words filed in the database; no cut-off is given here.

For the molecule `CCCN(c1ccc(CCC(=O)O)cc1)c1cc2c(cc1C)C(C)(C)CCC2(C)C`, the outcome in data set [1] and in data set [2] was Active.

Consider `CCCN(c1ccc(/C=C/C(=O)O)cc1)c1cc2c(cc1C)C(C)(C)CCC2(C)C`, for which the result in data set [1] and in data set [2] was Active.

Turning to `CCCN(c1ccc(C(=O)O)cc1)c1cc2c(cc1C)C(C)(C)CCC2(C)C`, the EC50 in data set [3] is 1.4 ×10⁻¹⁰ M. For the same molecule, the outcome in data set [2] was Active.

Consider `CN(c1ccc(C(=O)O)cc1)c1ccc2c(c1)C(C)(C)CCC2(C)C`, for which the EC50 was found to be 6.6 nM in data set [4] and 360 nM in data set [5] (read-out: EC50). For the same molecule, the result in data set [1] was Active.

As to `CCCN(c1ccc(C(=O)O)cc1)c1ccc2c(c1)C(C)(C)CCC2(C)C`, the EC50 in data set [4] was 1.5 nM; in data set [5], “Not Active”. In data set [2], the result was Active.

In data set [1], `Cc1cc2c(cc1N(C)c1ccc(/C=C/C(=O)O)cc1)C(C)(C)CCC2(C)C` showed an EC50 of 38 nM. Also, the outcome in data set [2] was Active.

For the molecule `Cc1cc(C(=O)O)ccc1N(C)c1ccc2c(c1)C(C)(C)CCC2(C)C`, the result in data set [1] and in data set [2] was inactive. Besides, the “inhibition (INH)” value in data set [6] was “Dose-dependent effect”.

For `Cc1cc2c(cc1N(C)c1ccc(C(=O)O)cc1)C(C)(C)CCC2(C)C`, the outcome in data set [1] and in data set [2] was Active. The EC50 in data set [3] is 1.3 ×10⁻¹⁰ M.

With `CC1(C)CCC(C)(C)c2cc(NC(=O)c3ccc(C(=O)O)cc3)ccc21` [TAMIBAROTENE], the Activity is listed as 5% in data set [7] and 60% in data set [8].

As to `CN(c1ccc(/C=C/C(=O)O)cc1)c1ccc2c(c1)C(C)(C)CCC2(C)C`, in data set [1], the EC50 was determined as 22 nM. In addition, the outcome in data set [2] was Active.

Consider `Cc1cc2c(cc1N(C)c1ccc(CCC(=O)O)cc1)C(C)(C)CCC2(C)C`, for which the result in data set [1] and in data set [2] was Active.

`CCCN(c1ccc(/C=C/C(=O)O)cc1)c1ccc2c(c1)C(C)(C)CCC2(C)C`: the result in data set [1] and in data set [2] was Active.

In the case of `CCCN(c1ccc(CCC(=O)O)cc1)c1ccc2c(c1)C(C)(C)CCC2(C)C`, the result in data set [1] and in data set [2] was Active.

With `CN(c1ccc(CCC(=O)O)cc1)c1ccc2c(c1)C(C)(C)CCC2(C)C`, the result in data set [1] and in data set [2] was Active.

The values above are taken from ChEMBL document CHEMBL2321651, “Structure-activity relationship study on benzoic acid part of diphenylamine-based retinoids” (Bioorg Med Chem Lett, 2013).
